Drawing on BindingDB's records for patent US11708326 (Chemocentryx, 2023), this text covers IC50 for 20 compounds.

Bounds are passed on as bounds.

Programmed cell death 1 ligand 1, sequence (Q9NZQ7 whole entry): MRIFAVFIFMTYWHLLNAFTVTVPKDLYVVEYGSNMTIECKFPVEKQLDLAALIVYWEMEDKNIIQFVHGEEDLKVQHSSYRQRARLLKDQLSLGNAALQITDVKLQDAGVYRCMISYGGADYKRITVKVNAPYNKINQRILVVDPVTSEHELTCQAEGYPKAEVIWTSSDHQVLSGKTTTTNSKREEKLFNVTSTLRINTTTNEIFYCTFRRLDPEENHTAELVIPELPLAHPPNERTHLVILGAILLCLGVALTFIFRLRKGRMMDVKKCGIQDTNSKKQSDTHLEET

This experiment concerns the target Programmed cell death 1 ligand 1 (Homo sapiens, UniProt Q9NZQ7). The experiment is described as follows: Enzyme-Linked Immunosorbent Assay ELISA. The method, then: 96 Well plates were coated with 1 μg/mL of human PD-L1 (obtained from R&D) in PBS overnight at 4° C. The wells were then blocked with 2% BSA in PBS (W/V) with 0.05% TWEEN-20 for 1 hour at 37° C. The plates were washed 3 times with PBS/0.05% TWEEN-20 and the compounds were serial diluted (1:5) in dilution medium and added to the ELISA plates. Human PD-1 and biotin 0.3 μg/mL (ACRO Biosystems) were added and incubated for 1 hour at 37° C. then washed 3 times with PBS/0.05% TWEEN-20. A second block was performed with 2% BSA in PBS (W/V)/0.05% TWEEN-20 for 10 min at 37° C. and was washed 3 times with PBS/0.05% TWEEN-20. Streptavidin-HRP was added for 1 hour at 37° C. then washed 3 times with PBS/0.05% TWEEN-20. TMB substrate was added and reacted for 20 min at 37° C. A stop solution (2 N aqueous H2SO4) was added. The absorbance was read at 450 nm using a micro-plate spectrophotometer.
What is called IC50 is the concentration at which inhibition is half-maximal. In the case of `Cc1c(OCCCN2[C@@H](C)CC[C@@H]2C)cccc1-c1cccc2c1CC[C@@H]2Oc1cc(OCc2cc(C#N)cc(C#N)c2)c(CN[C@H]2CCC(=O)NC2)cc1Cl` [US11708326, Compound TABLE 1.335], the half-maximal inhibitory concentration (IC50) is less than 5 nM. `N#Cc1cncc(COc2cc(O[C@H]3CCc4c(-c5cccc(OCCCN6CC7(CC(O)C7)C6)c5Cl)cccc43)c(Cl)cc2CNC[C@H]2CCC(=O)N2)c1` [US11708326, Compound TABLE 1.165] displayed an IC50 of less than 5 nM. `N#Cc1cncc(COc2cc(O[C@H]3CCc4c(-c5cccc(OCCCN6CC(F)C6)c5Cl)cccc43)c(Cl)cc2CN[C@@H]2CCCC[C@@H]2O)c1` [US11708326, Compound TABLE 1.92] returned a half-inhibitory concentration (IC50) of less than 5 nM. Take `N#Cc1cncc(COc2cc(O[C@H]3CCc4c(-c5cccc(OCCCN6CC(O)C6)c5Cl)cccc43)c(Cl)cc2CN2CCCC3(C2)NC(=O)NC3=O)c1` (stereo not given in full) [US11708326, Compound TABLE 1.137]: the IC50 was less than 5 nM. With `CCOc1cc(NC2CCc3c(-c4cccc(OCCCN5CCC(F)CC5)c4C)cccc32)c(Cl)cc1CN[C@@H](CO)C(=O)O` (stereo not given in full) [US11708326, Compound TABLE 1.117], the IC50 result is “in the range around 252 nM”. In the case of `Cc1c(OCCCN2CCCC2C(C)C)cccc1-c1cccc2c1CC[C@@H]2Oc1cc(OCc2cc(C#N)cc(C#N)c2)c(CN[C@H]2CCC(=O)NC2)cc1Cl` (stereo not given in full) [US11708326, Compound TABLE 1.305], the IC50 entry is “in the range around 252 nM”. Under `Cc1c(OCCCN2C(C)CCC2C)cccc1-c1cccc2c1CC[C@@H]2Oc1cc(OCc2cc(C#N)cc(C#N)c2)c(CN[C@H]2CCC(=O)NC2)cc1Cl` (stereo not given in full) [US11708326, Compound TABLE 1.304] stands less than 5 nM; under `Cc1c(OCCCN2CC[C@@H](O)[C@H](F)C2)cccc1-c1cccc2c1CC[C@@H]2Oc1cc(OCc2cncc(C#N)c2)c(CN[C@H](C(=O)O)[C@@H](C)O)cc1Cl` [US11708326, Compound TABLE 1.31], “in the range around 252 nM”; under `Cc1c(OCCCN2CCC(F)(F)CC2)cccc1-c1cccc2c1CC[C@@H]2Oc1cc(OCc2cncc(C#N)c2)c(CN[C@H](C(=O)O)[C@@H](C)O)cc1Cl` [US11708326, Compound TABLE 1.18], “in the range around 252 nM”.

Regarding `Cc1c(OCCCN2CCC2(C)C)cccc1-c1cccc2c1CC[C@@H]2Oc1cc(OCc2cc(C#N)cc(C#N)c2)c(CN[C@H]2CCC(=O)NC2)cc1Cl` [US11708326, Compound TABLE 1.323], the IC50 is less than 5 nM. Compound `Cc1c(OCCCN2CCCC[C@@H]2C)cccc1-c1cccc2c1CC[C@@H]2Oc1cc(OCc2cc(C#N)cc(C#N)c2)c(CN[C@H]2CCC(=O)NC2)cc1Cl` [US11708326, Compound TABLE 1.315] returned an IC50 of less than 5 nM.

For `Cc1c(OCCCN2CC[C@H](O)[C@H](F)C2)cccc1-c1cccc2c1CC[C@@H]2Oc1cc(OCc2cncc(C#N)c2)c(CN[C@H](C(=O)O)[C@@H](C)O)cc1Cl` [US11708326, Compound TABLE 1.34], the concentration for half-maximal inhibition (IC50) is less than 5 nM. `CC(CO)(NCc1cc(Cl)c(O[C@H]2CCc3c(-c4cccc(OCCCN5CCCCC5)c4Cl)cccc32)cc1OCc1cncc(C#N)c1)C(=O)O` (stereo not given in full) [US11708326, Compound TABLE 1.130] gave a half-inhibitory concentration (IC50) of less than 5 nM.

Turning to `CCOc1cc(O[C@H]2CCc3c(-c4cccc(OCCCN5CCC5(C)C)c4C)cccc32)c(Cl)cc1CN(C)CC(=O)O` [US11708326, Compound TABLE 1.378], the concentration for half-maximal inhibition (IC50) entry is “in the range around 252 nM”.

`Cc1c(OCCCN2[C@H](C)CC[C@@H]2C)cccc1-c1cccc2c1CC[C@@H]2Oc1cc(OCc2cc(C#N)cc(C#N)c2)c(CN[C@H]2CCC(=O)NC2)cc1Cl` [US11708326, Compound TABLE 1.333] yielded an IC50 of less than 5 nM. Under `Cc1c(OCCCN2[C@H](C)CCC[C@@H]2C)cccc1-c1cccc2c1CC[C@@H]2Oc1cc(OCc2cc(C#N)cc(C#N)c2)c(CN[C@H]2CCC(=O)NC2)cc1Cl` [US11708326, Compound TABLE 1.298] stands “in the range around 252 nM”; under `CCOc1cc(O[C@H]2CCc3c(-c4cccc(OCCCN5CCC5(C)C)c4C)cccc32)c(Cl)cc1CNCCC(=O)OC(C)C` [US11708326, Compound TABLE 1.393], “in the range around 252 nM”; under `Cc1c(OCCCN2[C@H](C)CC[C@H]2C)cccc1-c1cccc2c1CC[C@@H]2Oc1cc(OCc2cc(C#N)cc(C#N)c2)c(CN[C@H]2CCC(=O)NC2)cc1Cl` [US11708326, Compound TABLE 1.334], less than 5 nM.

`Cc1c(OCCCN2CCC(C)CC2)cccc1-c1cccc2c1CC[C@@H]2Oc1cc(OCc2cc(C#N)cc(C#N)c2)c(CN[C@H]2CCC(=O)NC2)cc1Cl` [US11708326, Compound TABLE 1.296]: the IC50 entry is “in the range around 252 nM”. Consider `N#Cc1cncc(COc2cc(O[C@H]3CCc4c(-c5cccc(OCCCN6CC7(CC(O)C7)C6)c5Cl)cccc43)c(Cl)cc2CNC[C@@H]2CCC(=O)N2)c1` [US11708326, Compound TABLE 1.164], for which the half-maximal inhibitory concentration (IC50) was less than 5 nM.
